{
  "source": "PubChem BioAssay AID2060617",
  "about": "(Molecular Pharmacology Branch, DTP, NCI, 2025)",
  "test_system": "485368-065-R4-J2-PDC spheroids with HUVEC/MSC, viability",
  "experiment": "Anticancer human tumor 485368-065-R4-J2-PDC patient-derived pancreatic carcinoma cell line growth inhibition [CLK]",
  "details": "for pIC50: curve of first compound; for viability, T/C: stronger effect = lower value",
  "how_it_was_run": "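Multi-cell-type spheroids combined patient-derived tumor cells with HUVEC endothelial cells and human mesenchymal stem cells. Paired agents were dosed in half-log steps down from about clinical Cmax, or from 10 microM where Cmax was unknown.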",
  "key": {"[1]": {"details": "second compound 0.0316 µM, first compound 0.0316 µM"}, "[2]": {"details": "second compound 0.0316 µM, first compound 0.1 µM"}, "[3]": {"details": "second compound 0.0316 µM, first compound 0.316 µM"}, "[4]": {"details": "second compound 0.0316 µM, first compound 1 µM"}, "[5]": {"details": "second compound 0.0316 µM, first compound 3.16 µM"}, "[6]": {"details": "second compound 0.0316 µM, first compound 10 µM"}, "[7]": {"details": "second compound 0.1 µM, first compound 0.0316 µM"}, "[8]": {"details": "second compound 0.1 µM, first compound 0.1 µM"}, "[9]": {"details": "second compound 0.1 µM, first compound 0.316 µM"}, "[10]": {"details": "second compound 0.1 µM, first compound 1 µM"}, "[11]": {"details": "second compound 0.1 µM, first compound 3.16 µM"}, "[12]": {"details": "second compound 0.1 µM, first compound 10 µM"}, "[13]": {"details": "second compound 0.316 µM, first compound 0.0316 µM"}, "[14]": {"details": "second compound 0.316 µM, first compound 0.1 µM"}, "[15]": {"details": "second compound 0.316 µM, first compound 0.316 µM"}, "[16]": {"details": "second compound 0.316 µM, first compound 1 µM"}, "[17]": {"details": "second compound 0.316 µM, first compound 3.16 µM"}, "[18]": {"details": "second compound 0.316 µM, first compound 10 µM"}, "[19]": {"details": "second compound 1 µM, first compound 0.0316 µM"}, "[20]": {"details": "second compound 1 µM, first compound 0.1 µM"}, "[21]": {"details": "second compound 1 µM, first compound 0.316 µM"}, "[22]": {"details": "second compound 1 µM, first compound 1 µM"}, "[23]": {"details": "second compound 1 µM, first compound 3.16 µM"}, "[24]": {"details": "second compound 1 µM, first compound 10 µM"}, "[25]": {"details": "second compound 3.16 µM, first compound 0.0316 µM"}, "[26]": {"details": "second compound 3.16 µM, first compound 0.1 µM"}, "[27]": {"details": "second compound 3.16 µM, first compound 0.316 µM"}, "[28]": {"details": "second compound 3.16 µM, first compound 1 µM"}, "[29]": {"details": "second compound 3.16 µM, first compound 3.16 µM"}, "[30]": {"details": "second compound 3.16 µM, first compound 10 µM"}, "[31]": {"details": "second compound 10 µM, first compound 0.0316 µM"}, "[32]": {"details": "second compound 10 µM, first compound 0.1 µM"}, "[33]": {"details": "second compound 10 µM, first compound 0.316 µM"}, "[34]": {"details": "second compound 10 µM, first compound 1 µM"}, "[35]": {"details": "second compound 10 µM, first compound 3.16 µM"}, "[36]": {"details": "second compound 10 µM, first compound 10 µM"}},
  "note": "pIC50: −log10 of the molar value.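 Further: spheroids exposed to compounds for seven days.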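 Wherever viability, T/C is given: 100% = DMSO vehicle control wells.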",
  "data": [
    {"smiles": "COc1ccc([C@@H](O)c2cc(-c3ncnc4cc(N5CCOCC5)ccc34)c(F)cc2Cl)nn1", "note": "+ CN1CCN(c2cc(C(=O)Nc3cc4cc(-c5cnn(C)c5)ccc4cn3)ccn2)CC1", "values": [
      {"measurement": "pIC50", "setting": "second compound 0.0316 µM", "result": "< 5.00"},
      {"measurement": "pIC50", "setting": "second compound 0.1 µM", "result": "< 5.00"},
      {"measurement": "pIC50", "setting": "second compound 0.316 µM", "result": 5.09},
      {"measurement": "pIC50", "setting": "second compound 1 µM", "result": "> 7.50"},
      {"measurement": "pIC50", "setting": "second compound 3.16 µM", "result": "> 7.50"},
      {"measurement": "pIC50", "setting": "second compound 10 µM", "result": "> 7.50"},
      {"measurement": "viability, T/C", "setting": "[1]", "result": 106, "unit": "%"},
      {"measurement": "viability, T/C", "setting": "[2]", "result": 109, "unit": "%"},
      {"measurement": "viability, T/C", "setting": "[3]", "result": 111, "unit": "%"},
      {"measurement": "viability, T/C", "setting": "[4]", "result": 119, "unit": "%"},
      {"measurement": "viability, T/C", "setting": "[5]", "result": 109, "unit": "%"},
      {"measurement": "viability, T/C", "setting": "[6]", "result": 82, "unit": "%"},
      {"measurement": "viability, T/C", "setting": "[7]", "result": 114, "unit": "%"},
      {"measurement": "viability, T/C", "setting": "[8]", "result": 113, "unit": "%"},
      {"measurement": "viability, T/C", "setting": "[9]", "result": 113, "unit": "%"},
      {"measurement": "viability, T/C", "setting": "[10]", "result": 115, "unit": "%"},
      {"measurement": "viability, T/C", "setting": "[11]", "result": 100, "unit": "%"},
      {"measurement": "viability, T/C", "setting": "[12]", "result": 74.6, "unit": "%"},
      {"measurement": "viability, T/C", "setting": "[13]", "result": 79, "unit": "%"},
      {"measurement": "viability, T/C", "setting": "[14]", "result": 81.2, "unit": "%"},
      {"measurement": "viability, T/C", "setting": "[15]", "result": 69.7, "unit": "%"},
      {"measurement": "viability, T/C", "setting": "[16]", "result": 65, "unit": "%"},
      {"measurement": "viability, T/C", "setting": "[17]", "result": 61.3, "unit": "%"},
      {"measurement": "viability, T/C", "setting": "[18]", "result": 47.2, "unit": "%"},
      {"measurement": "viability, T/C", "setting": "[19]", "result": 0.59, "unit": "%"},
      {"measurement": "viability, T/C", "setting": "[20]", "result": 0.61, "unit": "%"},
      {"measurement": "viability, T/C", "setting": "[21]", "result": 0.67, "unit": "%"},
      {"measurement": "viability, T/C", "setting": "[22]", "result": 0.97, "unit": "%"},
      {"measurement": "viability, T/C", "setting": "[23]", "result": 0.95, "unit": "%"},
      {"measurement": "viability, T/C", "setting": "[24]", "result": 1.67, "unit": "%"},
      {"measurement": "viability, T/C", "setting": "[25]", "result": 1.12, "unit": "%"},
      {"measurement": "viability, T/C", "setting": "[26]", "result": 1.03, "unit": "%"},
      {"measurement": "viability, T/C", "setting": "[27]", "result": 0.98, "unit": "%"},
      {"measurement": "viability, T/C", "setting": "[28]", "result": 1.02, "unit": "%"},
      {"measurement": "viability, T/C", "setting": "[29]", "result": 1.01, "unit": "%"},
      {"measurement": "viability, T/C", "setting": "[30]", "result": 1.54, "unit": "%"},
      {"measurement": "viability, T/C", "setting": "[31]", "result": 1.19, "unit": "%"},
      {"measurement": "viability, T/C", "setting": "[32]", "result": 1.26, "unit": "%"},
      {"measurement": "viability, T/C", "setting": "[33]", "result": 1.23, "unit": "%"},
      {"measurement": "viability, T/C", "setting": "[34]", "result": 1.29, "unit": "%"},
      {"measurement": "viability, T/C", "setting": "[35]", "result": 2.19, "unit": "%"},
      {"measurement": "viability, T/C", "setting": "[36]", "result": 3.09, "unit": "%"}
    ]},
    {"smiles": "C=C(F)C(=O)N1CCN(c2nc(OCC3CCCN3C)nc3c2CCN(c2cccc4cccc(Cl)c24)C3)CC1CC#N", "note": "(centres undefined) + CNC(=O)c1ccc(Nc2nc(OC3CCCC3)c3c(-c4ccc5nc(C)oc5c4)c[nH]c3n2)c(OC)c1", "values": [
      {"measurement": "pIC50", "setting": "second compound 0.0316 µM", "result": "< 5.00"},
      {"measurement": "pIC50", "setting": "second compound 0.1 µM", "result": "< 5.00"},
      {"measurement": "pIC50", "setting": "second compound 0.316 µM", "result": "< 5.00"},
      {"measurement": "pIC50", "setting": "second compound 1 µM", "result": "< 5.00"},
      {"measurement": "pIC50", "setting": "second compound 3.16 µM", "result": "< 5.00"},
      {"measurement": "pIC50", "setting": "second compound 10 µM", "result": 5.12},
      {"measurement": "viability, T/C", "setting": "[1]", "result": 83.5, "unit": "%"},
      {"measurement": "viability, T/C", "setting": "[2]", "result": 105, "unit": "%"},
      {"measurement": "viability, T/C", "setting": "[3]", "result": 85.8, "unit": "%"},
      {"measurement": "viability, T/C", "setting": "[4]", "result": 101, "unit": "%"},
      {"measurement": "viability, T/C", "setting": "[5]", "result": 115, "unit": "%"},
      {"measurement": "viability, T/C", "setting": "[6]", "result": 99, "unit": "%"},
      {"measurement": "viability, T/C", "setting": "[7]", "result": 98.2, "unit": "%"},
      {"measurement": "viability, T/C", "setting": "[8]", "result": 95.4, "unit": "%"},
      {"measurement": "viability, T/C", "setting": "[9]", "result": 107, "unit": "%"},
      {"measurement": "viability, T/C", "setting": "[10]", "result": 112, "unit": "%"},
      {"measurement": "viability, T/C", "setting": "[11]", "result": 111, "unit": "%"},
      {"measurement": "viability, T/C", "setting": "[12]", "result": 108, "unit": "%"},
      {"measurement": "viability, T/C", "setting": "[13]", "result": 79.8, "unit": "%"},
      {"measurement": "viability, T/C", "setting": "[14]", "result": 80.9, "unit": "%"},
      {"measurement": "viability, T/C", "setting": "[15]", "result": 89.1, "unit": "%"},
      {"measurement": "viability, T/C", "setting": "[16]", "result": 92.9, "unit": "%"},
      {"measurement": "viability, T/C", "setting": "[17]", "result": 82.7, "unit": "%"},
      {"measurement": "viability, T/C", "setting": "[18]", "result": 93.5, "unit": "%"},
      {"measurement": "viability, T/C", "setting": "[19]", "result": 81.9, "unit": "%"},
      {"measurement": "viability, T/C", "setting": "[20]", "result": 79.7, "unit": "%"},
      {"measurement": "viability, T/C", "setting": "[21]", "result": 77.6, "unit": "%"},
      {"measurement": "viability, T/C", "setting": "[22]", "result": 78.5, "unit": "%"},
      {"measurement": "viability, T/C", "setting": "[23]", "result": 94.5, "unit": "%"},
      {"measurement": "viability, T/C", "setting": "[24]", "result": 107, "unit": "%"},
      {"measurement": "viability, T/C", "setting": "[25]", "result": 74.4, "unit": "%"},
      {"measurement": "viability, T/C", "setting": "[26]", "result": 70.2, "unit": "%"},
      {"measurement": "viability, T/C", "setting": "[27]", "result": 76.1, "unit": "%"},
      {"measurement": "viability, T/C", "setting": "[28]", "result": 78.1, "unit": "%"},
      {"measurement": "viability, T/C", "setting": "[29]", "result": 80.9, "unit": "%"},
      {"measurement": "viability, T/C", "setting": "[30]", "result": 90.4, "unit": "%"},
      {"measurement": "viability, T/C", "setting": "[31]", "result": 71.6, "unit": "%"},
      {"measurement": "viability, T/C", "setting": "[32]", "result": 76.4, "unit": "%"},
      {"measurement": "viability, T/C", "setting": "[33]", "result": 76.1, "unit": "%"},
      {"measurement": "viability, T/C", "setting": "[34]", "result": 80, "unit": "%"},
      {"measurement": "viability, T/C", "setting": "[35]", "result": 71.3, "unit": "%"},
      {"measurement": "viability, T/C", "setting": "[36]", "result": 43, "unit": "%"}
    ]}
  ]
}
